Measured values: PubChem BioAssay AID328 (DTP/NCI, 2004)
Several values for one entry are separate records, joined by “and”; a condition that tells them apart may be missing. Equal entries are not always repeated. Toxic doses and inconclusive results are not listed.

Test system: BDF1 mice, P388 leukemia ip, median survival T/C
Assay: NCI In Vivo Anticancer Drug Screen. Data for tumor model P388 Leukemia (intraperitoneal) in B6D2F1 (BDF1) mice
Details: endpoint: median survival time, higher = longer survival
In short: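 Mice carrying the transplantable tumour receive compound or vehicle. Survival is followed in each arm, and the treated measure is divided by the vehicle measure.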

[1] = dose: 25.0 mg/kg/injection, schedule: Q04DX003 (ip), vehicle: Klucel (hydroxypropylcellulose) (HPC)
[2] = dose: 50.0 mg/kg/injection, schedule: Q04DX003 (ip), vehicle: Klucel (hydroxypropylcellulose) (HPC)
[3] = dose: 100.0 mg/kg/injection, schedule: Q01DX009 (ip), vehicle: Klucel (hydroxypropylcellulose) (HPC)
[4] = dose: 100.0 mg/kg/injection, schedule: Q04DX003 (ip), vehicle: Klucel (hydroxypropylcellulose) (HPC)
[5] = dose: 200.0 mg/kg/injection, schedule: Q04DX003 (ip), vehicle: Klucel (hydroxypropylcellulose) (HPC)
[6] = dose: 400.0 mg/kg/injection, schedule: Q04DX003 (ip), vehicle: Klucel (hydroxypropylcellulose) (HPC)
[7] = dose: 12.5 mg/kg/injection, schedule: Q01DX009 (ip), vehicle: saline
[8] = dose: 25.0 mg/kg/injection, schedule: Q01DX009 (ip), vehicle: saline
[9] = dose: 50.0 mg/kg/injection, schedule: Q01DX009 (ip), vehicle: saline
[10] = dose: 100.0 mg/kg/injection, schedule: Q01DX009 (ip), vehicle: saline with Tween-80
[11] = dose: 200.0 mg/kg/injection, schedule: Q01DX009 (ip), vehicle: saline with Tween-80
[12] = dose: 100.0 mg/kg/injection, schedule: Q04DX003 (ip), vehicle: saline with Tween-80
[13] = dose: 50.0 mg/kg/injection, schedule: Q01DX009 (ip), vehicle: saline with Tween-80
[14] = dose: 100.0 mg/kg/injection, schedule: Q01DX009 (ip), vehicle: saline

O=C(CCl)N1CCc2ccccc21
T/C (dose: 25.0 mg/kg/injection, schedule: Q01DX009 (ip), vehicle: Klucel (hydroxypropylcellulose) (HPC)): 104 % of control | T/C [1]: 90 % of control | T/C (dose: 50.0 mg/kg/injection, schedule: Q01DX009 (ip), vehicle: Klucel (hydroxypropylcellulose) (HPC)): 100 % of control | T/C [2]: 100 % of control | T/C [3]: 86 % of control | T/C [4]: 95 % of control

CCCC[N+](CCCC)(CCCC)CCCC.Cc1ccc([SH2+])c([SH2+])c1.Cc1ccc([SH2+])c([SH2+])c1.[Fe+3]
T/C (dose: 45.0 mg/kg/injection, schedule: Q04DX003 (ip), vehicle: Klucel (hydroxypropylcellulose) (HPC)): 109 % of control | T/C (dose: 65.0 mg/kg/injection, schedule: Q04DX003 (ip), vehicle: Klucel (hydroxypropylcellulose) (HPC)): 118 % of control | T/C (dose: 100.0 mg/kg/injection, schedule: Q01DX001 (ip), vehicle: other): 112 % of control | T/C (dose: 150.0 mg/kg/injection, schedule: Q04DX003 (ip), vehicle: Klucel (hydroxypropylcellulose) (HPC)): 118 % of control | T/C (dose: 200.0 mg/kg/injection, schedule: Q01DX001 (ip), vehicle: other): 112 % of control | T/C [5]: 90 % of control and 120 % of control | T/C (dose: 400.0 mg/kg/injection, schedule: Q01DX001 (ip), vehicle: other): 108 % of control | T/C [6]: 120 % of control

[Cl][Eu]([Cl])[Cl]
T/C (dose: 6.25 mg/kg/injection, schedule: Q01DX009 (ip), vehicle: saline): 98 % of control | T/C [7]: 100 % of control | T/C [8]: 92 % of control | T/C [9]: 96 % of control

CCOC(=O)c1ccc(NCC#N)cc1
T/C [10]: 90 % of control | T/C [11]: 100 % of control | T/C (dose: 400.0 mg/kg/injection, schedule: Q01DX009 (ip), vehicle: saline with Tween-80): 100 % of control

COc1cc2c(cc1OC(C)=O)C(=O)CCCC2
T/C [12]: 89 % of control | T/C (dose: 200.0 mg/kg/injection, schedule: Q04DX003 (ip), vehicle: saline with Tween-80): 103 % of control | T/C (dose: 400.0 mg/kg/injection, schedule: Q04DX003 (ip), vehicle: saline with Tween-80): 99 % of control

O=S1(=O)C=C(c2ccccc2)C(c2ccccc2)=C1
T/C (dose: 22.0 mg/kg/injection, schedule: Q04DX003 (ip), vehicle: saline): 104 % of control | T/C (dose: 33.0 mg/kg/injection, schedule: Q04DX003 (ip), vehicle: saline): 113 % of control | T/C (dose: 50.0 mg/kg/injection, schedule: Q04DX003 (ip), vehicle: saline sonified): 118 % of control | T/C (dose: 75.0 mg/kg/injection, schedule: Q04DX003 (ip), vehicle: saline sonified): 150 % of control | T/C (dose: 75.0 mg/kg/injection, schedule: Q04DX003 (ip), vehicle: saline): 122 % of control

COc1cccc(/C=N/NC(=S)NC2CC3CCC2C3)c1O (stereo unspecified)
T/C [13]: 100 % of control | T/C [10]: 95 % of control | T/C [11]: 103 % of control

N=C(N)c1ccc(N=C(N)Nc2ccc(C(=N)N)cc2)cc1
T/C [9]: 118 % of control

CCN(CC)c1ccc(Cc2ccc(N(CC)CC)cc2Br)c(Br)c1
T/C [4]: 111 % of control | T/C [5]: 111 % of control | T/C [6]: 111 % of control

CN(C)N=Nc1ccccc1
T/C (dose: 31.25 mg/kg/injection, schedule: Q01DX009 (ip), vehicle: Klucel (hydroxypropylcellulose) (HPC)): 103 % of control | T/C (dose: 82.0 mg/kg/injection, schedule: Q04DX003 (ip), vehicle: Klucel (hydroxypropylcellulose) (HPC)): 110 % of control | T/C (dose: 125.0 mg/kg/injection, schedule: Q04DX003 (ip), vehicle: saline): 90 % of control

N=C([Se])c1ncn(C2OC(CO)C(O)C2O)c1N (stereo unspecified)
T/C (dose: 6.25 mg/kg/injection, schedule: Q04DX003 (ip), vehicle: saline): 106 % of control | T/C (dose: 12.5 mg/kg/injection, schedule: Q04DX003 (ip), vehicle: saline): 108 % of control | T/C (dose: 25.0 mg/kg/injection, schedule: Q04DX003 (ip), vehicle: saline): 111 % of control | T/C (dose: 50.0 mg/kg/injection, schedule: Q04DX003 (ip), vehicle: saline): 106 % of control

Cn1c(CS)nc2ccccc21
T/C (dose: 12.5 mg/kg/injection, schedule: Q04DX003 (ip), vehicle: Klucel (hydroxypropylcellulose) (HPC)): 104 % of control | T/C [1]: 102 % of control | T/C [2]: 105 % of control | T/C [4]: 96 % of control

NNc1cc(N)[nH]n1
T/C [7]: 106 % of control | T/C [8]: 100 % of control | T/C [9]: 100 % of control | T/C [14]: 93 % of control

Fc1ccccc1C1=NCC(=S)N(CC(F)(F)F)c2ccc(Cl)cc21
T/C [13]: 100 % of control | T/C [10]: 96 % of control

C#CCCOC(=O)Nc1ccccc1
T/C [3]: 100 % of control | T/C (dose: 200.0 mg/kg/injection, schedule: Q01DX009 (ip), vehicle: Klucel (hydroxypropylcellulose) (HPC)): 90 % of control | T/C (dose: 400.0 mg/kg/injection, schedule: Q01DX009 (ip), vehicle: Klucel (hydroxypropylcellulose) (HPC)): 90 % of control

c1ccc(CNCCN(Cc2ccccc2)Cc2ccccc2)cc1
T/C (dose: 0.78 mg/kg/injection, schedule: Q01DX009 (ip), vehicle: water): 105 % of control | T/C (dose: 1.56 mg/kg/injection, schedule: Q01DX009 (ip), vehicle: water): 106 % of control | T/C (dose: 3.12 mg/kg/injection, schedule: Q01DX009 (ip), vehicle: water): 99 % of control and 101 % of control | T/C (dose: 6.25 mg/kg/injection, schedule: Q01DX009 (ip), vehicle: water): 93 % of control and 110 % of control | T/C (dose: 12.5 mg/kg/injection, schedule: Q01DX009 (ip), vehicle: water): 110 % of control and 115 % of control | T/C (dose: 25.0 mg/kg/injection, schedule: Q01DX009 (ip), vehicle: water): 101 % of control

CC(C)n1cc2c(N)ncnc2n1
T/C [7]: 92 % of control | T/C [8]: 92 % of control | T/C [9]: 100 % of control and 120 % of control | T/C [14]: 100 % of control | T/C (dose: 100.0 mg/kg/injection, schedule: Q04DX003 (ip), vehicle: saline): 92 % of control | T/C (dose: 200.0 mg/kg/injection, schedule: Q04DX003 (ip), vehicle: saline): 100 % of control

COc1cc(Cc2nccc3cc(OC)c(OC)cc23)c([N+](=O)[O-])cc1OC
T/C (dose: 100.0 mg/kg/injection, schedule: Q04DX003 (ip), vehicle: saline sonified): 90 % of control | T/C (dose: 200.0 mg/kg/injection, schedule: Q04DX003 (ip), vehicle: saline sonified): 95 % of control | T/C (dose: 400.0 mg/kg/injection, schedule: Q04DX003 (ip), vehicle: saline sonified): 90 % of control

CCOC(=O)/C=C\CBr
T/C (dose: 1.5 mg/kg/injection, schedule: Q01DX010 (ip), vehicle: saline): 100 % of control | T/C (dose: 3.0 mg/kg/injection, schedule: Q01DX010 (ip), vehicle: saline): 100 % of control | T/C (dose: 6.0 mg/kg/injection, schedule: Q01DX010 (ip), vehicle: saline): 105 % of control | T/C (dose: 12.0 mg/kg/injection, schedule: Q01DX010 (ip), vehicle: saline): 100 % of control and 115 % of control | T/C (dose: 24.0 mg/kg/injection, schedule: Q01DX010 (ip), vehicle: saline): 100 % of control | T/C (dose: 48.0 mg/kg/injection, schedule: Q01DX010 (ip), vehicle: saline): 120 % of control

CNC(=S)N/N=C\C(=N/NC(=S)NC)c1ccco1
T/C (dose: 15.0 mg/kg/injection, schedule: Q01DX009 (ip), vehicle: saline with Tween-80): 100 % of control | T/C (dose: 30.0 mg/kg/injection, schedule: Q01DX009 (ip), vehicle: saline with Tween-80): 98 % of control

c1ccc2c(c1)ccc1nc3c4ccccc4c4ccccc4c3nc12
T/C [13]: 114 % of control | T/C [10]: 113 % of control | T/C [11]: 105 % of control

O=C1c2ccccc2C(=O)N1C1CCC(O)CC1 (stereo unspecified)
T/C (dose: 25.0 mg/kg/injection, schedule: Q01DX009 (ip), vehicle: saline with Tween-80): 109 % of control | T/C (dose: 25.0 mg/kg/injection, schedule: Q04DX003 (ip), vehicle: saline with Tween-80): 104 % of control | T/C [13]: 86 % of control | T/C (dose: 50.0 mg/kg/injection, schedule: Q04DX003 (ip), vehicle: saline with Tween-80): 109 % of control | T/C [10]: 90 % of control | T/C [12]: 104 % of control

O=C(O)C1CCCN1C(=O)c1ccc(Cl)c(Cl)c1 (stereo unspecified)
T/C (dose: 50.0 mg/kg/injection, schedule: Q01DX005 (ip), vehicle: saline with Tween-80): 100 % of control | T/C (dose: 100.0 mg/kg/injection, schedule: Q01DX005 (ip), vehicle: saline with Tween-80): 93 % of control | T/C (dose: 200.0 mg/kg/injection, schedule: Q01DX005 (ip), vehicle: saline with Tween-80): 99 % of control
